Results taken from patent US20100120700A1, “METHODS AND COMPOSITIONS FOR TREATING CERVICAL CANCER” (priority 2000, published 2010).
Where “and” joins values, the source holds several entries; their conditions need not be identical. Identical values can stand only once. Entries after “also recorded” stand apart in the source; their conditions may differ.

Assays:
[1] = target: T1, TIP1 (Homo sapiens, UniProt O14907); assay: G assay peptide titration (EC50); type: binding; details: E6 peptide titrated against constant GST-PDZ
T1 construct: made in house; host or cells: E. coli (DH5alpha, BL21 or JM109)
Experimental: (1) A GST/PDZ fusion protein, as well as GST alone as a negative control, are bound to a surface (e.g., a 96-well plate) and the surface blocked and washed as described supra for the “G” assay.
(2) 50 uL per well of a solution of biotinylated PL peptide (e.g. as shown in TABLE 2) is added to the surface in increasing concentrations in PBS/BSA (e.g. at 0.1 uM, 0.33 uM, 1 uM, 3.3 uM, 10 uM, 33 uM, and 100 uM). In one embodiment, the PL peptide is allowed to react with the bound GST/PDZ fusion protein (as well as the GST alone negative control) for 10 minutes at 4° C. followed by 20 minutes at 25° C. The plate is washed 3 times with ice cold PBS to remove unbound labeled peptide.
(3) The binding of the PL peptide to the immobilized PDZ-domain polypeptide is detected as described supra for the “G” assay.
(4) For each concentration of peptide, the net binding signal is determined by subtracting the binding of the peptide to GST alone from the binding of the peptide to the GST/PDZ fusion protein. […]
Relative binding affinities for the 14 most significant interactions with different PDZ domains were determined by E6 peptide titrations.

[2] = target: T2, PAR3 #278.1 domain 3 (Homo sapiens, UniProt Q8TEW0); assay: G assay PDZ-PL binding; details: peptide 10 uM, protein 5
T2 construct: made in house; host or cells: E. coli (DH5alpha, BL21 or JM109)
Experimental: (§1) (1) A PDZ-domain polypeptide is bound to a surface, e.g. a protein binding surface. In a preferred embodiment, a GST/PDZ fusion protein containing one or more PDZ domains is bound to a polystyrene 96-well plate. […] In one embodiment, the GST/PDZ fusion protein is bound via an anti-GST antibody that is coated onto the 96-well plate. Adequate binding to the plate can be achieved when: • a. 100 uL per well of 5 ug/mL goat anti-GST polyclonal antibody (Pierce) in PBS is added to a polystyrene 96-well plate (e.g., Num Polysorb) at 4° C. for 12 hours. • b. The plate is blocked by addition of 200 uL per well of PBS/BSA for 2 hours at 4° C. • c. The plate is washed 3 times with PBS. • d. 50 uL per well of 5 ug/mL GST/PDZ fusion protein) or, as a negative control, GST polypeptide alone (i.e. not a fusion protein) in PBS/BSA is added to the plate for 2 hours at 4° C. • e. The plate is again washed 3 times with PBS.
(§2) (2) Biotinylated PL peptides are allowed to react with the surface by addition of 50 uL per well of 20 uM solution of the biotinylated peptide in PBS/BSA for 10 minutes at 4° C., followed by an additional 20 minute incubation at 25° C.
(§3) (3) The binding of the biotinylated peptide to the GST/PDZ fusion protein surface can be detected using a variety of methods and detectors known to one of skill in the art. In one embodiment, 100 uL per well of 0.5 ug/mL streptavidin-horse radish peroxidase (HRP) conjugate dissolved in BSA/PBS is added and allowed to react for 20 minutes at 4° C. The plate is then washed 5 times with 50 mM Tris pH 8.0 containing 0.2% Tween 20, and developed by addition of 100 uL per well of HRP-substrate solution (TMB, Dako) for 20 minutes at room temperature (RT). The reaction of the HRP and its substrate is terminated by addition of 100 uL per well of 1M sulfuric acid, and the absorbance of each well of the plate is read at 450 nm.
(§4) (4) Specific binding of a PL peptide and a PDZ domain polypeptide is determined by comparing the signal from the well(s) in which the PL peptide and PDZ domain polypeptide are combined, with the background signal(s). The background signal is the signal found in the negative control(s). Typically a specific or selective reaction will be at least twice background signal, more typically more than 5 times background, and most typically 10 or more times the background signal. In addition, a statistically significant reaction will involve multiple measurements of the reaction with the signal and the background differing by at least two standard errors, more typically four standard errors, and most typically six or more standard errors. Correspondingly, a statistical test (e.g. a T-test) comparing repeated measurements of the signal with-repeated measurements of the background will result in a p-value<0.05, more typically a p-value<0.01, and most typically a p-value<0.001 or less. As noted, in an embodiment of the “G” assay, the signal from binding of a given PL peptide to immobilized (surface bound) GST polypeptide alone is one suitable negative control (sometimes referred to as “B 1”). Because all measurement are done in multiples (i.e. at least duplicate) the arithmetic mean (or, equivalently, average.) of several measurements is used in determining the binding, and the standard error of the mean is used in determining the probable error in the measurement of the binding. The standard error of the mean of N measurements equals the square root of the following: the sum of the squares of the difference between each measurement and the mean, divided by the product of (N) and (N−1). Thus, in one embodiment, specific binding of the PDZ protein to the platebound peptide is determined by comparing the mean signal (“mean S”) and standard error of the signal (“SE”) for a particular PL-PDZ combination with the mean B1. […]

[3] = target: T3, NeDLG domain 1, 2 (Homo sapiens, UniProt Q92796); assay: G assay PDZ-PL binding; details: peptide 10 uM, protein 5
T3 construct: the DNA portion cloned represents the PDZ domains and the cDNA portion located between individual domains; made in house; host or cells: E. coli (DH5alpha, BL21 or JM109)
Experimental: as §1, §2, §3, §4

[4] = target: T4, KIAA1526 #125.1 domain 1 (Homo sapiens, UniProt Q9P202); assay: G assay PDZ-PL binding; details: peptide 10 uM, protein 5
T4 construct: made in house; host or cells: E. coli (DH5alpha, BL21 or JM109)
Experimental: as §1, §2, §3, §4

[5] = target: T5, NeDLG domain 3 (Homo sapiens, UniProt Q92796); assay: G assay PDZ-PL binding; details: peptide 10 uM, protein 5
T5 construct: made in house; host or cells: E. coli (DH5alpha, BL21 or JM109), vector pGEX-3X
Experimental: as §1, §2, §3, §4

[6] = target: T6, KIAA1719 domain 3 (Homo sapiens, UniProt Q9C0E4); assay: G assay PDZ-PL binding; details: peptide 10 uM, protein 5
T6 construct: made in house; host or cells: E. coli (DH5alpha, BL21 or JM109)
Experimental: as §1, §2, §3, §4

[7] = target: T7, PSD95 domain 1, 2, 3 (Homo sapiens, UniProt P78352); assay: G assay PDZ-PL binding; details: peptide 10 uM, protein 5
T7 construct: the DNA portion cloned represents the PDZ domains and the cDNA portion located between individual domains; made in house; host or cells: E. coli (DH5alpha, BL21 or JM109)
Experimental: as §1, §2, §3, §4

[8] = target: T8, PTN-4 domain 1 (Homo sapiens, UniProt P29074); assay: G assay PDZ-PL binding; details: peptide 10 uM, protein 5
T8 construct: made in house; host or cells: E. coli (DH5alpha, BL21 or JM109), vector pGEX-3X
Experimental: as §1, §2, §3, §4

[9] = target: T9, PDZK1 domain 3 (Homo sapiens, UniProt Q5T2W1); assay: G assay PDZ-PL binding; details: peptide 10 uM, protein 5
T9 construct: made in house; host or cells: E. coli (DH5alpha, BL21 or JM109)
Experimental: as §1, §2, §3, §4

[10] = target: T10, INADL domain 4 (Homo sapiens, UniProt Q8NI35); assay: G assay PDZ-PL binding; details: peptide 10 uM, protein 5
T10 construct: made in house; host or cells: E. coli (DH5alpha, BL21 or JM109)
Experimental: as §1, §2, §3, §4

[11] = target: T11, PSD95 domain 2 (Homo sapiens, UniProt P78352); assay: G assay PDZ-PL binding; details: vs GST only well, peptide 10 uM, protein 5
T11 construct: made in house; host or cells: E. coli (DH5alpha, BL21 or JM109)
Experimental: as §1, §2, §3, §4

[12] = target: T12, KIAA0973 #288.2 domain 1 (Homo sapiens, UniProt Q9Y2H9); assay: G assay PDZ-PL binding; details: peptide 10 uM, protein 5
T12 construct: made in house; host or cells: E. coli (DH5alpha, BL21 or JM109)
Experimental: as §1, §2, §3, §4

[13] = target: T13, MAGI 1 domain 5 (Homo sapiens, UniProt Q96QZ7); assay: G assay PDZ-PL binding; details: peptide 10 uM, protein 5
T13 construct: made in house; host or cells: E. coli (DH5alpha, BL21 or JM109)
Experimental: as §1, §2, §3, §4

[14] = test system: human PDZ domains; assay: G assay, E6 PL peptides against PDZ domain panel; details: value names the PDZ domain(s) that saturated binding with the E6 peptide; signal classes (A450 nm 3-4 or 4)
Experimental: as §1, with “50 uL per well of 5 ug/mL GST/PDZ fusion protein) or, as a negative control, GST polypeptide alone (i.e. not a fusion protein) in PBS/BSA is added to the plate for 2 hours at 4° C. • e. The plate is again washed 3 times with PBS.” left out
(3) The binding of the biotinylated peptide to the GST/PDZ fusion protein surface can be detected using a variety of methods and detectors known to one of skill in the art. […] The reaction of the HRP and its substrate is terminated by addition of 100 uL per well of 1M sulfuric acid, and the absorbance of each well of the plate is read at 450 nm.
(4) Specific binding of a PL peptide and a PDZ domain polypeptide is determined by comparing the signal from the well(s) in which the PL peptide and PDZ domain polypeptide are combined, with the background signal(s). […]

T3 sequence (Q92796 129-315 limits assumed): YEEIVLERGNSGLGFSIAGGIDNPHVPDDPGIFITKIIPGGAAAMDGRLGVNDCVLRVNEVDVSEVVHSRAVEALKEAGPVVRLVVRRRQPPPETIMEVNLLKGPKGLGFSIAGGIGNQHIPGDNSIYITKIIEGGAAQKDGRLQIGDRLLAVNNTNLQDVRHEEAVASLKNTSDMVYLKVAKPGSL
T13 sequence (Q96QZ7 988-1099): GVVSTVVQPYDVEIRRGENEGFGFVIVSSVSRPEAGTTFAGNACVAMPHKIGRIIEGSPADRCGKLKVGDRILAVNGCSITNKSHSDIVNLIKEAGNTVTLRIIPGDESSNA
T5 sequence (Q92796 with tags, fused parts or gaps): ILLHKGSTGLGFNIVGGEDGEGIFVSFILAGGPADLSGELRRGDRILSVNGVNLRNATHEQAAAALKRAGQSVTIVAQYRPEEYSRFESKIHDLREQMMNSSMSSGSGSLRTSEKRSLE
T12 sequence (Q9Y2H9 963-1055): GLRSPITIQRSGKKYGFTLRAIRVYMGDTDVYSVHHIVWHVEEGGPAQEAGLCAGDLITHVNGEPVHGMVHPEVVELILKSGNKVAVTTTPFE
T4 sequence (Q9P202 130-232): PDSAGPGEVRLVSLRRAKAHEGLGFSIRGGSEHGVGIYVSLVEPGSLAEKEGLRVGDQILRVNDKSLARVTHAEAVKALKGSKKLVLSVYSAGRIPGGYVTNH
T2 sequence (Q8TEW0 579-681): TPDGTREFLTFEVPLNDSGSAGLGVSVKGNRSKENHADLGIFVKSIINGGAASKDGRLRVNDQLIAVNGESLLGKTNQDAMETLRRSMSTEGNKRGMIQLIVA
T8 sequence (P29074 518-605): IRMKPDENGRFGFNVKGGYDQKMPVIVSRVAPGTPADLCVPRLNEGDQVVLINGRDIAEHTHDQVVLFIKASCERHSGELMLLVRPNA
T10 sequence (Q8NI35 with tags, fused parts or gaps): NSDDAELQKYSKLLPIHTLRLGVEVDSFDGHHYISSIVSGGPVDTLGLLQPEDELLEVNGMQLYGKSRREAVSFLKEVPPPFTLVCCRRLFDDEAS
T6 sequence (Q9C0E4 with tags, fused parts or gaps): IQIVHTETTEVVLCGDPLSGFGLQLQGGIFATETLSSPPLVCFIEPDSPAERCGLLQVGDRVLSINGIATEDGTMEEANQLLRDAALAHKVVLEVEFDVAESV
T1 sequence (O14907 14-116): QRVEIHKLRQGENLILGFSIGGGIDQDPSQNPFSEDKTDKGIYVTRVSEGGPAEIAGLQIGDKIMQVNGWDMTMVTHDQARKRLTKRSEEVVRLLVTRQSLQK

20 mer peptide corresponding to the C-terminus of HPV16 E6 (PDZ ligand), biotinylated in binding assays; ends SSRTRRETQL (SEQ ID NO: 13) [HPV E6 #16]
EC50 [1]: 750 nM | Ave OD ([2]; A450 nm): 0.352 | OD S/N ([2]; vs GST only well): 1.80 | Ave OD ([3]; A450 nm): 3.401 and 3.118 | OD S/N ([3]; vs GST only well): 19.83 and 17.13 | Ave OD ([4]; A450 nm): 1.379 and 0.7665 | OD S/N ([4]; vs GST only well): 6.69 and 3.57 | Ave OD ([5]; A450 nm): 0.632 and 0.5225 | OD S/N ([5]; vs GST only well): 3.69 and 2.49 | Ave OD ([6]; A450 nm): 0.346 | OD S/N ([6]; vs GST only well): 1.65 | Ave OD ([7]; A450 nm): 3.523 and 3.866 | OD S/N ([7]; vs GST only well): 22.58 and 19.67 | Ave OD ([8]; A450 nm): 0.8085 | OD S/N ([8]; vs GST only well): 4.03 | Ave OD ([9]; A450 nm): 0.5 | OD S/N ([9]; vs GST only well): 1.92 | Ave OD ([10]; A450 nm): 0.357 | OD S/N ([10]; vs GST only well): 2.15 | OD S/N [11]: 12.23 and 12.53 | Ave OD ([12]; A450 nm): 2.8295 and 3.85 | OD S/N ([12]; vs GST only well): 10.11 and 16.42 | Ave OD ([13]; A450 nm): 0.4325 and 0.541 | OD S/N ([13]; vs GST only well): 1.77 and 3.12 | PDZ binding partner (signal 4 and 5 of 0-5) [14]: TIP-1; also recorded: Magi1 (PDZ #2)
